Columns and labels:
Format in all cases: functional
P388 [1] = assay: In vivo antineoplastic activity against mouse P388 cells assessed as life extension at 46 to 92 ug/kg
P388 [2] = assay: In vivo antineoplastic activity against mouse P388 cells assessed as life extension at 46 to 185 ug/kg
P388 [3] = assay: In vivo antineoplastic activity against mouse P388 cells assessed as life extension at 3.1 mg/kg

CCCC(=O)O[C@H]1/C(=C/C(=O)OC)C[C@@H]2C[C@H]([C@@H](C)O)OC(=O)C[C@H](O)C[C@@H]3C[C@H](OC(=O)CC(C)C)C(C)(C)[C@](O)(C[C@@H]4C/C(=C/C(=O)OC)C[C@H](/C=C/C(C)(C)[C@]1(O)O2)O4)O3 [BRYOSTATIN 4]
Activity (P388 [1]): 62%

COC(=O)/C=C1/C[C@H]2C[C@]3(O)O[C@H](C[C@@H](O)CC(=O)O[C@@H]([C@@H](C)O)C[C@H]4C/C(=C\C(=O)OC)[C@H](OC(C)=O)[C@@](O)(O4)C(C)(C)/C=C/[C@@H](C1)O2)C[C@H](OC(=O)CC(C)C)C3(C)C [BRYOSTATIN 5]
Activity (P388 [2]): 45%

CC(C)=CCc1cc(O)ccc1O [PRENYLHYDROQUINONE]
Activity (P388 [3]): 38%
